This assay relates to HCV replicon (HCV 1b-377-neo replicon cells). Kind of assay: HCV replicon cell line FRET assay. The following applies: Hepatitis C virus; HCV replicon cell line, FRET assay; read-out: Replicon Inhibition Range EC50. It is filed as cell-based.
On to `C[C@H](NC(=O)OCc1ccccc1)C(=O)Nc1ccc(C2S/C(=N\c3cccc4ccncc34)N(Cc3ccco3)C2=O)cc1` (stereo partly shown) [Compound 12], for which the EC50 was under 100 nM.

As for `O=C(Nc1ccc(C2S/C(=N\c3cccc(F)c3)N(Cc3ccco3)C2=O)cc1)[C@@H]1CCCN1C(=O)COc1ccccc1` (stereo partly shown) [Compound 130], the EC50 was 100 to 1000 nM.

With `O=C(Nc1ccc(C2S/C(=N\c3ccc(N4CCOCC4)cc3)N(Cc3ccccn3)C2=O)cc1)[C@@H]1CCCN1C(=O)C(F)c1ccccc1` (stereo partly shown) [Compound 110], the EC50 was under 100 nM.

For the compound `CCOC(=O)/N=C1\SC(c2ccc(NC(=O)[C@@H]3CCCN3C(=O)OCc3ccccc3)cc2)C(=O)N1Cc1ccccn1` (stereo partly shown) [Compound 91], the EC50 is under 100 nM.

Consider `COc1ccc(C(F)(F)F)cc1/N=C1\SC(c2ccc(NC(=O)[C@H](C)NC(=O)OCc3ccccc3)cc2)C(=O)N1Cc1ccco1` (stereo partly shown) [Compound 50], for which the EC50 was 100 to 1000 nM.

Take `C[C@H](NC(=O)c1ccccc1)C(=O)Nc1ccc(C2S/C(=N\c3cccc(F)c3)N(Cc3ccco3)C2=O)cc1` (stereo partly shown) [Compound 126]: the concentration for a half-maximal effect (EC50) was 1000 to 5000 nM.

As to `O=C(Nc1ccc(C2S/C(=N\c3cccc(F)c3)N(Cc3ccco3)C2=O)cc1)[C@@H]1CCCN1C(=O)Cc1ccncc1` (stereo partly shown) [Compound 129], the EC50 fell in the range of 100 to 1000 nM.

In the case of `CCc1cccc(/N=C2\SC(c3ccc(NC(=O)[C@H](C)NC(=O)OCc4ccccc4)cc3)C(=O)N2Cc2ccco2)c1` (stereo partly shown) [Compound 37], the EC50 fell in the range of 1000 to 5000 nM.

On to `O=C(Nc1ccc(C2S/C(=N\c3ccc(N4CCOCC4)cc3)N(Cc3ccccn3)C2=O)cc1)[C@@H]1CCCN1C(=S)NCc1ccccc1` (stereo partly shown) [Compound 136], for which the concentration for a half-maximal effect (EC50) is under 100 nM.

With `C[C@H](NC(=O)Cc1ccccc1)C(=O)Nc1ccc(C2S/C(=N\c3ccc(N4CCOCC4)cc3)N(Cc3ccccn3)C2=O)cc1` (stereo partly shown) [Compound 99], the concentration giving a half-maximal response (EC50) was under 100 nM.

As to `O=C(Nc1ccc(C2S/C(=N\c3ccc4c(c3)CCC4)N(Cc3ccco3)C2=O)cc1)[C@@H]1CCCN1C(=O)OCc1ccccc1` (stereo partly shown) [Compound 38], the EC50 is 100 to 1000 nM.

For `O=C(Nc1ccc(C2S/C(=N\c3ccc(N4CCOCC4)cc3)N(Cc3ccccn3)C2=O)cc1)[C@@H]1CCCN1C(=O)C1(c2ccccc2)CC1` (stereo partly shown) [Compound 118], the EC50 was under 100 nM.

Take `O=C(Nc1ccc(C2S/C(=N\c3cccc(F)c3)N(Cc3ccco3)C2=O)cc1)[C@@H]1CCCN1C(=O)Cc1ccc(Cl)cc1` (stereo partly shown) [Compound 128]: the concentration giving a half-maximal response (EC50) lay in the range of 100 to 1000 nM.

As to `CO[C@@H](C(=O)N1CCC[C@H]1C(=O)Nc1ccc(C2S/C(=N\c3ccc(N4CCOCC4)cc3)N(Cc3ccccn3)C2=O)cc1)c1ccccc1` (stereo partly shown) [Compound 116], the EC50 is under 100 nM.

Consider `C[C@H](NC(=O)OCc1ccccc1)C(=O)Nc1ccc(C2S/C(=N\c3cccc(F)c3)N(Cc3cccnc3)C2=O)cc1` (stereo partly shown) [Compound 27], for which the EC50 was under 100 nM.

Regarding `Cc1cnc(CN2C(=O)C(c3ccc(NC(=O)[C@@H]4CCCN4C(=O)OCc4ccccc4)cc3)S/C2=N\c2ccc(N3CCOCC3)cc2)cn1` (stereo partly shown) [Compound 70], the EC50 is under 100 nM.

As to `O=C(Nc1ccc(C2S/C(=N\c3cccc(F)c3)N(Cc3cccnc3)C2=O)cc1)[C@@H]1CCCN1C(=O)OCc1ccccc1` (stereo partly shown) [Compound 15], the 50% effective concentration (EC50) was under 100 nM.

On to `COc1cccc(CN2C(=O)C(c3ccc(NC(=O)[C@H](C)NC(=O)OCc4ccccc4)cc3)S/C2=N\c2cccc(F)c2)c1` (stereo partly shown) [Compound 25], for which the EC50 fell in the range of 100 to 1000 nM.

Regarding `Cc1cc(F)ccc1/N=C1\SC(c2ccc(NC(=O)[C@H](C)NC(=O)OCc3ccccc3)cc2)C(=O)N1Cc1ccco1` (stereo partly shown) [Compound 58], the EC50 lay in the range of 1000 to 5000 nM.

With `CC(C)/N=C1\SC(c2ccc(NC(=O)[C@H](C)NC(=O)[C@@H](C)c3ccccc3)cc2)C(=O)N1Cc1ccccn1` (stereo partly shown) [Compound 121], the EC50 fell in the range of 100 to 1000 nM.

In the case of `O=C(Nc1ccc(C2S/C(=N\c3ccc(N4CCOCC4)cc3)N(Cc3ccccn3)C2=O)cc1)[C@@H]1CCC(=O)N1C(=O)OCc1ccccc1` (stereo partly shown) [Compound 88], the EC50 was under 100 nM.

For the compound `C[C@H](NC(=O)CCc1ccccc1)C(=O)Nc1ccc(C2S/C(=N\c3cccc(F)c3)N(Cc3ccco3)C2=O)cc1` (stereo partly shown) [Compound 125], the concentration giving a half-maximal response (EC50) was in the range of 1000 to 5000 nM.

On to `O=C(Nc1ccc(C2S/C(=N\c3cccc(F)c3)N(CC3CCCO3)C2=O)cc1)[C@@H]1CCCN1C(=O)OCc1ccccc1` (stereo partly shown) [Compound 14], for which the EC50 was under 100 nM.

In the case of `O=C(Nc1ccc(C2S/C(=N\c3ccc(N4CCOCC4)cc3)N(Cc3ccccn3)C2=O)cc1)[C@@H]1CCCN1C(=O)C(c1ccccc1)c1ccccc1` (stereo partly shown) [Compound 107], the EC50 is under 100 nM.

Regarding `CN=C1SC(c2ccc(NC(=O)[C@@H]3CCCN3C(=O)OCc3ccccc3)cc2)C(=O)N1Cc1ccccn1` (stereo partly shown) [Compound 85], the EC50 was under 100 nM.

On to `Cc1cnc(CN2C(=O)C(c3ccc(NC(=O)[C@@H]4CCC(=O)N4C(=O)OCc4ccccc4)cc3)S/C2=N\c2ccc(N3CCOCC3)cc2)cn1` (stereo partly shown) [Compound 71], for which the EC50 was under 100 nM.

In the case of `O=C(Nc1ccc(C2S/C(=N\c3ccc(N4CCOCC4)cc3)N(Cc3ccccn3)C2=O)cc1)[C@@H]1CCCN1S(=O)(=O)Cc1ccccc1` (stereo partly shown) [Compound 132], the EC50 lay within 1000 to 5000 nM.

Turning to `C[C@H](NC(=O)OCc1ccccc1)C(=O)Nc1ccc(C2S/C(=N\c3cccc(F)c3)N(CCc3cccs3)C2=O)cc1` (stereo partly shown) [Compound 24], the EC50 is 100 to 1000 nM.

`C[C@H](NC(=O)Cc1ccccc1)C(=O)Nc1ccc(C2S/C(=N\c3cccc(F)c3)N(Cc3ccccn3)C2=O)cc1` (stereo partly shown) [Compound 96]: the EC50 was under 100 nM.

Regarding `C[C@H](NC(=O)OCc1ccccc1)C(=O)Nc1ccc(C2S/C(=N\c3ccc(N4CCOCC4)cc3)N(Cc3ccccn3)C2=O)cc1` (stereo partly shown) [Compound 72], the half-maximal effective concentration (EC50) was under 100 nM.

As to `O=C(Nc1ccc(C2S/C(=N\c3cccc(F)c3)N(Cc3ccccn3)C2=O)cc1)[C@@H]1CCCN1C(=O)OCc1ccccc1` (stereo partly shown) [Compound 3], the EC50 was under 100 nM.

As for `C[C@H](NC(=O)OCc1ccccc1)C(=O)Nc1ccc(C2S/C(=N\c3cccc(F)c3)N(Cc3ccccn3)C2=O)cc1` (stereo partly shown) [Compound 4], the half-maximal effective concentration (EC50) is under 100 nM.

As for `CC(C)(C)O[C@@H]1C[C@@H](C(=O)Nc2ccc(C3S/C(=N\c4ccc(N5CCOCC5)cc4)N(Cc4ccccn4)C3=O)cc2)N(C(=O)OCc2ccccc2)C1` (stereo partly shown) [Compound 79], the EC50 fell in the range of 1000 to 5000 nM.

For the compound `C/N=C1\SC(c2ccc(NC(=O)[C@@H]3CCCN3C(=O)Cc3ccccc3)cc2)C(=O)N1Cc1ccccn1` (stereo partly shown) [Compound 101], the half-maximal effective concentration (EC50) was under 100 nM.

In the case of `C[C@H](NC(=O)OCc1ccccc1)C(=O)Nc1ccc(C2S/C(=N\Cc3ccccn3)N(C)C2=O)cc1` (stereo partly shown) [Compound 86], the EC50 fell in the range of 1000 to 5000 nM.

In the case of `COc1ccc(C(F)(F)F)cc1/N=C1\SC(c2ccc(NC(=O)[C@@H]3CCCN3C(=O)OCc3ccccc3)cc2)C(=O)N1Cc1ccco1` (stereo partly shown) [Compound 49], the EC50 is 100 to 1000 nM.

Regarding `CN(C)c1ccc(CC(=O)N2CCC[C@H]2C(=O)Nc2ccc(C3S/C(=N\c4ccc(N5CCOCC5)cc4)N(Cc4ccccn4)C3=O)cc2)cc1` (stereo partly shown) [Compound 103], the EC50 is 100 to 1000 nM.

For `C[C@H](NC(=O)OCc1ccccc1)C(=O)Nc1ccc(C2S/C(=N\c3cc(F)cc(F)c3)N(Cc3ccco3)C2=O)cc1` (stereo partly shown) [Compound 43], the concentration giving a half-maximal response (EC50) was 100 to 1000 nM.

Take `COc1ccc(CC(=O)N2CCC[C@H]2C(=O)Nc2ccc(C3S/C(=N\c4ccc(N5CCOCC5)cc4)N(Cc4ccccn4)C3=O)cc2)cc1` (stereo partly shown) [Compound 106]: the EC50 lay in the range of 100 to 1000 nM.

Consider `C[C@H](NC(=O)OCc1ccccc1)C(=O)Nc1ccc(C2S/C(=N\c3ccc(F)c(Cl)c3)N(Cc3ccco3)C2=O)cc1` (stereo partly shown) [Compound 52], for which the concentration for a half-maximal effect (EC50) fell in the range of 1000 to 5000 nM.

With `O=C(Nc1ccc(C2S/C(=N\c3cccc(F)c3)N(Cc3ccccc3)C2=O)cc1)[C@@H]1CCCN1C(=O)OCc1ccccc1` (stereo partly shown) [Compound 16], the concentration giving a half-maximal response (EC50) was in the range of 100 to 1000 nM.

`O=C(Nc1ccc(C2S/C(=N\c3ccc(N4CCOCC4)cc3)N(Cc3ccccn3)C2=O)cc1)[C@@H]1CCCN1C(=O)NCc1ccccc1` (stereo partly shown) [Compound 135]: the concentration giving a half-maximal response (EC50) is under 100 nM.

`CN=C1SC(c2ccc(NC(=O)[C@H](C)NC(=O)OCc3ccccc3)cc2)C(=O)N1Cc1ccccn1` (stereo partly shown) [Compound 84]: the concentration giving a half-maximal response (EC50) is 100 to 1000 nM.

With `C[C@H](NC(=O)OCc1ccccc1)C(=O)Nc1ccc(C2S/C(=N\c3cccc(F)c3)N(Cc3ccc(OC(F)(F)F)cc3)C2=O)cc1` (stereo partly shown) [Compound 23], the half-maximal effective concentration (EC50) was in the range of 1000 to 5000 nM.

For the compound `COc1ccc(/N=C2\SC(c3ccc(NC(=O)[C@@H]4CCCN4C(=O)OCc4ccccc4)cc3)C(=O)N2Cc2ccco2)cc1F` (stereo partly shown) [Compound 65], the EC50 was under 100 nM.

For the compound `CC(C)(C)/N=C1\SC(c2ccc(NC(=O)[C@@H]3CCCN3C(=O)OCc3ccccc3)cc2)C(=O)N1Cc1ccccn1` (stereo partly shown) [Compound 89], the half-maximal effective concentration (EC50) is 100 to 1000 nM.

As to `CO[C@H](C(=O)N1CCC[C@H]1C(=O)Nc1ccc(C2S/C(=N\c3ccc(N4CCOCC4)cc3)N(Cc3ccccn3)C2=O)cc1)c1ccccc1` (stereo partly shown) [Compound 117], the concentration for a half-maximal effect (EC50) is under 100 nM.

Regarding `O=C(Nc1ccc(C2S/C(=N\c3cccc(Cl)c3)N(Cc3ccco3)C2=O)cc1)[C@@H]1CCCN1C(=O)OCc1ccccc1` (stereo partly shown) [Compound 53], the EC50 lay in the range of 100 to 1000 nM.

For the compound `O=C(Nc1cccc(C2S/C(=N\c3cccc(F)c3)N(Cc3ccco3)C2=O)c1)[C@@H]1CCCN1C(=O)OCc1ccccc1` (stereo partly shown) [Compound 33], the EC50 was in the range of 1000 to 5000 nM.

Regarding `O=C(Nc1ccc(C2S/C(=N\c3cccc(F)c3)N(Cc3ccc(OC(F)(F)F)cc3)C2=O)cc1)[C@@H]1CCCN1C(=O)OCc1ccccc1` (stereo partly shown) [Compound 19], the EC50 was in the range of 1000 to 5000 nM.

Take `C[C@H](NC(=O)OCc1ccccc1)C(=O)Nc1ccc(C2S/C(=N\c3ccc(N4CCOCC4)cc3)N(Cc3ccco3)C2=O)cc1` (stereo partly shown) [Compound 10]: the EC50 is under 100 nM.

`O=C(Nc1ccc(C2S/C(=N\c3ccc(F)c(C(F)(F)F)c3)N(Cc3ccco3)C2=O)cc1)[C@@H]1CCCN1C(=O)OCc1ccccc1` (stereo partly shown) [Compound 67]: the half-maximal effective concentration (EC50) lay in the range of 1000 to 5000 nM.

Regarding `C[C@H](NC(=O)Nc1ccccc1)C(=O)Nc1ccc(C2S/C(=N\c3cccc(F)c3)N(Cc3ccco3)C2=O)cc1` (stereo partly shown) [Compound 134], the concentration giving a half-maximal response (EC50) fell in the range of 1000 to 5000 nM.

Consider `O=C(Nc1ccc(C2S/C(=N\c3cccc(OC(F)(F)F)c3)N(Cc3ccco3)C2=O)cc1)[C@@H]1CCCN1C(=O)OCc1ccccc1` (stereo partly shown) [Compound 55], for which the concentration for a half-maximal effect (EC50) is 100 to 1000 nM.

Regarding `O=C(Nc1ccc(C2S/C(=N\c3ccc(N4CCOCC4)cc3)N(Cc3ccccn3)C2=O)cc1)[C@@H]1CCC(=O)N1C(=O)C(c1ccccc1)c1ccccc1` (stereo partly shown) [Compound 113], the EC50 is 100 to 1000 nM.

The values above are taken from US20050069522A1, “Combination pharmaceutical agents as inhibitors of HCV replication” (priority 2002, published 2005).
